# Like-named read-outs stand apart in the source and are kept apart here.
# Tests used:
# CDK4:CCND1 = CDK4:CCND1 (Homo sapiens (Human), UniProt P11802); experiment: NanoBRET assay in MCF-7 cells, CDK4; type: cell-based; details: NanoBRET, transfected MCF-7 cells, 2 hours; n = 1 or average; read-out: CDK4 IC50
# Outline: (§1)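 Transiently transfected MCF-7 cells expressing CDK1:CCNB1 or CDK4:CCND1 were treated with compound plus tracer (CDK1: Tracer K-9, 400 μM stock; CDK4: Tracer K-7, 100 μM stock) for 2 h at 37 °C.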
# CDK1:CCNB1 = CDK1:CCNB1 (Homo sapiens (Human), UniProt P06493); experiment: NanoBRET assay in MCF-7 cells, CDK1; type: cell-based; details: NanoBRET, transfected MCF-7 cells, 2 hours; n = 1 or average; read-out: CDK1 IC50
# CDK1:CCNB1, sequence (P06493 whole entry): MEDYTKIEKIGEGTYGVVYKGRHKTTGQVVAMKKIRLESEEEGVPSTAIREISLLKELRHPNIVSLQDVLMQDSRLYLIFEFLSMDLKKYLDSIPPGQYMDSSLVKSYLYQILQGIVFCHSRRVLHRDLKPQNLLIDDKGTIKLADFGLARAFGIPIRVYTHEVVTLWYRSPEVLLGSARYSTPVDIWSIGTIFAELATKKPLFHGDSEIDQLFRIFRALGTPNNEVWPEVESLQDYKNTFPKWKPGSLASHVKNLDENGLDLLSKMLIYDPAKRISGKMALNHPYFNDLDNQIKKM
# CDK1:CCNB1, sequence (P14635 whole entry partner): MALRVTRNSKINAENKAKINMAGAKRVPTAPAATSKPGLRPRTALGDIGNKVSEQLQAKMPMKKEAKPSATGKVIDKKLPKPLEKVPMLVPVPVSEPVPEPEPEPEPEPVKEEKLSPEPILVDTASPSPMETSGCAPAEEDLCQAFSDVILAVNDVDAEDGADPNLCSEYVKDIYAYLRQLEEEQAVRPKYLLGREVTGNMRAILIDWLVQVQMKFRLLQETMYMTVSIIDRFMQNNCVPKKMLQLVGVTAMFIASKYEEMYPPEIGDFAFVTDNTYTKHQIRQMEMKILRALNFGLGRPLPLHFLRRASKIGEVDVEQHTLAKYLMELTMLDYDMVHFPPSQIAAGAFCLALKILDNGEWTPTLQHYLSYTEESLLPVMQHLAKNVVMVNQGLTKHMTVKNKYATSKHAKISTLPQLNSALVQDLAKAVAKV
# Outline: as §1
# [1] = CLint assessment in human liver microsomes (HLM); type: in vitro ADME; details: 1 μM
# Outline: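 Microsomes preincubated 8 min with NADPH, then compound added and incubated 30 min at 37° C. Remaining compound measured by LC-MS/MS. t1/2 and CLint calculated, with CLint scaled to incubation volume per mg microsomal protein.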
# OVCAR3 cells = experiment: Cellular proliferation EdU assay, OVCAR3; type: cell-based, human; details: EdU assay, two days, read-out: OVCAR3 IC50
# Outline: (§2)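 MCF-7 (800 cells/well) and OVCAR3 (1200 cells/well) in RPMI with 10% FBS exposed to compounds for two days at 37 °C.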
# [2] = test system: POLR2A Ser2 phosphorylation (CDK9); experiment: POLR2A Ser2 phosphorylation imaging assay in MCF-7 cells; type: cell-based; details: MCF-7 cells, 2 hours, read-out: POLR2A Ser2 phosphorylation IC50
# Outline: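 MCF-7 cells were fixed, permeabilised and immunostained for POLR2A phospho-Ser2, then imaged by high-content microscopy. Levels were normalised to controls and IC50 values derived.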
# [3] = Aqueous thermodynamic solubility, shake-flask; type: physicochemical; details: phosphate buffer 0.1 M, pH 7.4, 24 hours
# Outline: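 Dried compound (after DMSO evaporation) was equilibrated in 0.1 M phosphate buffer pH 7.4 with stirring for 24 h at 25° C. Undissolved material was removed by double centrifugation, and the supernatant was diluted in water and quantified by UPLC/MS/MS.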
# MCF-7 cells = experiment: Cellular proliferation EdU assay, MCF-7; type: cell-based; details: EdU assay, two days, read-out: MCF-7 IC50
# Outline: as §2
# CDK2:CCNE1 = CDK2:CCNE1 (Homo sapiens (Human), UniProt P24941); experiment: NanoBRET assay in MCF-7 cells, CDK2; type: cell-based; details: transfected MCF-7 cells, 2 hours, n = 1 or average
# Outline: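 In live MCF-7 cells, compound added followed by NanoBRET TE Tracer K-9 (stock 200 μM) for CDK2, 2 h at 37° C, 5% CO2.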
# [4] = test system: NPM phosphorylation (Thr199, CDK2-cyclin E complex); experiment: NPM phosphorylation imaging assay in MCF-7 cells; type: cell-based; details: 4N DNA cells
# Outline: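 MCF-7 cells were fixed, permeabilised and immunostained, then imaged for phospho-NPM (Thr199), a CDK2-cyclin E site. Analysis was gated on 4N-DNA cells by Hoechst staining. Signals were normalised to controls and fitted for IC50.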
# [5] = aqueous phosphate buffer, 25 °C, pH 7.4, aqueous buffer, thermodynamic from solid
# CDK4:CCND1, sequence (P11802 whole entry): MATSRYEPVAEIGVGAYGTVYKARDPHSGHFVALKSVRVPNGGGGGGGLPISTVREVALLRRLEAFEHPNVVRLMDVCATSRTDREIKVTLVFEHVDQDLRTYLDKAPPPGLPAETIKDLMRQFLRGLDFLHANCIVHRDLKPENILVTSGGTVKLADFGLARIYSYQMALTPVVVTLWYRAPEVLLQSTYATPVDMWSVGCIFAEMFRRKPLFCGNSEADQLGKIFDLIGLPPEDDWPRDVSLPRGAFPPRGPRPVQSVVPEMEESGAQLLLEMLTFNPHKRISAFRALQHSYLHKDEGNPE
# CDK4:CCND1, sequence (P24385 whole entry partner): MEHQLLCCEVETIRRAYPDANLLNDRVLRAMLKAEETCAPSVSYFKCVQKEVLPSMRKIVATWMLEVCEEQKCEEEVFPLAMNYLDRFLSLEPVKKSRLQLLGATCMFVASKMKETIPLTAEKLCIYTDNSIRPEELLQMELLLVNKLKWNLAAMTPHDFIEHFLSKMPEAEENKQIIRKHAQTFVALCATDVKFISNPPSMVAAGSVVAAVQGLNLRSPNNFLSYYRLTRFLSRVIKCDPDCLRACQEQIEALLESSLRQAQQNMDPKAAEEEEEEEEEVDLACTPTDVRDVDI
SMILES,IC50 (CDK4:CCND1) [nM],IC50 (CDK1:CCNB1) [nM],HLM CLint [1] [µL/min/mg],"IC50 (OVCAR3 cells; Homo sapiens, OVCAR-3, 48 h) [nM]","IC50 ([2]; Homo sapiens, MCF7, 2 h) [nM]","solubility at 24 h [3, 5] [µM]","IC50 (MCF-7 cells; Homo sapiens, MCF7, 48 h) [nM]",IC50 (CDK2:CCNE1) [nM],"IC50 ([4]; Homo sapiens, MCF7, 2 h) [nM]",IC50 (OVCAR3 cells) [nM],solubility at 24 h ([3]; 25° C.) [µM],IC50 (MCF-7 cells) [nM],IC50 ([4]; 2 hours) [nM],"IC50 ([4]; Homo sapiens, MCF7, 2 hours) [nM]",IC50 [2] [nM]
"CCNS(=O)(=O)N1CC[C@H](Nc2nc(N[C@@H](CO)C3CC3)nc3c2ncn3C(F)F)C1 [Example 14, (S)-3-((2-(((R)-1-cyclopropyl-2-hydroxyethyl)amino)-9-(difluoromethyl)-9H-purin-6-yl)amino)-N-ethylpyrrolidine-1-sulfonamide]",1000,98,38,51,4200,320,111,6,41,,,,,,
"CCn1cnc2c(N[C@H]3CCN(S(=O)(=O)NC)C3)nc(N[C@@H](C)[C@@H](O)C(F)(F)F)nc21 (single isomer, unassigned) [Example 49, (S)-3-((9-ethyl-2-(((2R*,3S*)-4,4,4-trifluoro-3-hydroxybutan-2-yl)amino)-9H-purin-6-yl)amino)-N-methylpyrrolidine-1-sulfonamide]",4400,907,19.5,,20200,,,13,,383,120,775,144,,
"CC[C@H](Nc1nc(N[C@@H]2CN(S(=O)(=O)NC)C[C@H]2F)c2ncn(CC)c2n1)[C@@H](C)O (relative stereo) [Example 52, (3R*,4R*)-3-((9-ethyl-2-(((2R,3S)-2-hydroxypentan-3-yl)amino)-9H-purin-6-yl)amino)-4-fluoro-N-methylpyrrolidine-1-sulfonamide]",16800,1200,21.1,252,11100,300,1020,21,151,,,,,,
"CC[C@H](Nc1nc(N[C@H]2CCN(S(=O)(=O)NC[C@@H]3COCCO3)C2)c2ncn(CC)c2n1)[C@@H](C)O [Example 25, (S)—N—(((R)-1,4-dioxan-2-yl)methyl)-3-((9-ethyl-2-(((2R,3S)-2-hydroxypentan-3-yl)amino)-9H-purin-6-yl)amino)pyrrolidine-1-sulfonamide]",> 29700,3990,61.6,642,> 30000,912,1430,69,,,,,,624,
"CC[C@H](Nc1nc(N[C@H]2CCN(S(N)(=O)=O)C2)c2ncn(CC)c2n1)[C@@H](C)O [Example 9, (S)-3-((9-ethyl-2-(((2R,3S)-2-hydroxypentan-3-yl)amino)-9H-purin-6-yl)amino)pyrrolidine-1-sulfonamide]",20200,2210,13.4,486,> 30000,> 1000,1060,100,432,,,,,,
"CCNS(=O)(=O)N1C[C@@H](F)[C@H](Nc2nc(N[C@@H](CO)C3CC3)nc3c2ncn3C)C1 (relative stereo) [Example 26, (3R*,4R*)-3-((2-(((R)-1-cyclopropyl-2-hydroxyethyl)amino)-9-methyl-9H-purin-6-yl)amino)-N-ethyl-4-fluoropyrrolidine-1-sulfonamide]",8100,651,15.2,496,11400,101,960,39,435,,,,,,
"CCn1cnc2c(N[C@H]3CCN(S(=O)(=O)NC)C3)nc(N[C@@H](C)[C@@H](O)C(F)(F)F)nc21 (single isomer, unassigned) [Example 50, (S)-3-((9-ethyl-2-(((2R*,3S*)-4,4,4-trifluoro-3-hydroxybutan-2-yl)amino)-9H-purin-6-yl)amino)-N-methylpyrrolidine-1-sulfonamide]",14200,2350,36.3,,,,,64,,1220,23.1,2760,412,,> 30000
"CCn1cnc2c(N[C@H]3CCN(S(=O)(=O)CC(F)(F)F)C3)nc(N[C@@H](CO)C(C)C)nc21 [Example 40, (R)-2-((9-ethyl-6-(((S)-1-(2,2,2-trifluoroethylsulfonyl)pyrrolidin-3-yl)amino)-9H-purin-2-yl)amino)-3-methylbutan-1-ol]",4300,587,>300,6720,> 30000,1.79,2710,24,253,,,,,,
"CCn1cnc2c(N[C@H]3CCN(S(=O)(=O)NC)C3)nc(-c3cccc4c3CNC4=O)nc21 [Example 1, (S)-3-((9-ethyl-2-(1-oxoisoindolin-4-yl)-9H-purin-6-yl)amino)-N-methylpyrrolidine-1-sulfonamide]",11900,236,>300,270,13300,7,2000,17,551,,,,,,
"CC(C)[C@H](CO)Nc1nc(N[C@H]2CCN(S(=O)(=O)C3CC3)C2)c2ncn(C(C)C)c2n1 [Example 27, (R)-2-((6-(((S)-1-(cyclopropylsulfonyl)pyrrolidin-3-yl)amino)-9-isopropyl-9H-purin-2-yl)amino)-3-methylbutan-1-ol]",3400,1420,>300,337,> 30000,39.8,839,11,,,,,,267,
"CC(C)n1cnc2c(N[C@H]3CCN(S(C)(=O)=O)C3)nc(NC(CO)C3CCCC3)nc21 (stereo partly drawn) [Example 15, 2-cyclopentyl-2-((9-isopropyl-6-(((S)-1-(methylsulfonyl)pyrrolidin-3-yl)amino)-9H-purin-2-yl)amino)ethan-1-ol]",2600,1220,>300,568,> 30000,132,918,22,231,,,,,,

# — patent US20250197425A1, “2,6,9-TRISUBSTITUTED PURINES” (ASTRAZENECA AB, priority 2022, published 2025)
